Where “and” joins values, the source holds several entries; their conditions need not be identical. Equal entries are not always repeated.
How the values were obtained:
[1] = Diffusion across bare collagen-coated support membrane (without cells); format: in vitro ADME; conditions: for D M: diffusion coefficient in medium: Table 1
Procedure: The extravascular transport properties of CP-506 and its formed metabolites were investigated using a custom-designed diffusion apparatus, as described previously ([Hicks et al., 2006]). Briefly, MCL cultures were established by seeding 1 x 10^6 POR-R cells onto collagen-coated Millicell-CM inserts for 3 days. Established MCLs were placed at the interface of the two media-filled compartments of diffusion chambers. Diffusion chambers were placed in a 37°C water bath and gassed with a supraoxic (95% O2, 5% CO2) or anoxic (5% CO2, bal N2) mixture for at least 1 h prior to drug addition. Flux was initiated by the addition of internal standard ([^14C]-urea) and 20 µM CP-506 to the donor compartment. Samples (100 µl) were collected from both the donor and receiver compartments for up to 5 h thereafter. At each time point, a 25 µl aliquot was mixed with emulsifier-safe water-accepting scintillant and assayed for radioactivity using a Perkin Elmer Tricard 2910 TR liquid scintillation analyser. The remaining sample was treated with two volumes of ice-cold acetonitrile (containing 2 µM of the relevant deuterated internal standards) and stored at −80°C until LC-MS/MS analysis. Similar experiments were performed using collagen-coated inserts without MCLs to deduce the chemical stability and diffusion coefficient of CP-506 across the bare support membrane.
Drug transport in MCLs was modelled as a one-dimensional diffusion with reaction across four consecutive compartments (stirred donor, POR-R MCL, collagen-coated teflon support membrane and stirred receiver) using a custom designed MatLab routine ([Foehrenbacher et al., 2013a]). Model parameters were derived by fitting Eq. 1 and Eq. 2 to the measured concentration-time profile of internal standard [^14C]-urea, CP-506, CP-506H and CP-506M in MCL flux studies. The flux of CP-506 and its metabolites across POR-R MCLs was described using Fick’s second law with a reaction term: ∂CeN/∂t=DN∂^2CeN/∂x^2−klossNCeN− φ( kinNCeN− koutNCiN) (1) ∂CiN/∂t= kmet0(N−1)Ci(N−1)+φ(kinNCeN− koutNCiN)−kmet0NCiN (2) where C is the concentration of the diffusing substance at position x and time t in the extracellular (e) or intracellular (i) compartment, D is the diffusion coefficient through either a bare support membrane (without cells) (D suo ) or extracellular space of a POR-R MCL (D MCL ), k loss is the rate constant for first-order loss (instability) in culture medium, k in and k out are the rate constants for transmembrane transport and k met0 is the rate constant for intracellular metabolism and instability for each compound (N). For metabolites, N-1 represents the previous compound from which the current compound is produced by metabolism. Experimental data was fitted iteratively to derive a tissue diffusion coefficient (DMCL) and metabolic scaling factor (φ i ) to restrain parameter estimates from the cellular PK model (Kin, Kout, Kmet0). The diffusion coefficient for CP-506 across the bare support membrane (Dsup) was determined by solving Eq. 1 with a reaction term only for chemical instability. MCL thicknesses were estimated by fitting the measured [^14C]-urea concentrations to those predicted by Eq. 1 and Eq. 2 without instability or metabolism by using the known diffusion coefficient (DMCL) for [^14C]-urea in HCT-116 MCLs ([Wilson et al., 2004]). The diffusion coefficient (DMCL) for CP-506 in POR-R MCLs was then fitted from the measured concentrations in the donor and receiver compartments of supraoxic experiments by assuming one-directional diffusion in the extracellular space. The metabolic scaling factor (φ i ) was then fitted from the measured concentrations in the donor and receiver compartment of anoxic experiments by fixing parameter estimates to the diffusion coefficient (DMCL) from supraoxic experiments.

[2] = test system: POR-overexpressing HCT-116 cells (POR-R) monolayer; assay: Cellular uptake studies / cellular PK model; format: in vitro ADME, human; conditions: for k in: rate constant for transfer from the extracellular to intracellular volume / k out: rate constant for transfer from the intracellular to extracellular volume: Table 1, ABM parameter, estimated from partitioning in monolayer cultures; for kin: rate of transfer from the extracellular to the intracellular compartment / kout: rate of transfer from the intracellular to the extracellular compartment: Table S3, cellular PK model, monolayer ABM fit; for kmet: rate of metabolism to the next metabolite: Table S3, anoxic, CP-506 to CP-506H, CP-506H to CP-506M, CP-506M to CP-506M-Cl2; for Activator k met0: rate constant for the maximum rate of metabolism in POR-R cells under anoxia / kmet: rate of metabolism to the next metabolite: POR-R cells
Procedure: (§1) The intracellular/extracellular partitioning ratio for CP-506 and its major metabolites was determined in monolayer cultures of POR-overexpressing HCT-116 cells, as described previously ([Hong et al., 2018b]). Briefly, cells (5 x 10^5 per well) were seeded with 350 µl medium into 24-well plates and left to attach for 2 h in a humidified 37°C incubator. Stock solutions of CP-506 were diluted and added with 50 µl medium to the well volume to achieve a final concentration of 100 µM. Samples were harvested at various time points for up to 3 h thereafter. Aerobic experiments were performed under standard tissue culture conditions (21% O2), and the anoxic experiments in parallel in a H2/Pd-catalyst-scrubbed anaerobic chamber as described. The well volume was spiked with [^3H]-mannitol immediately before sample harvest and treated with two-volumes of ice-cold acetonitrile containing 2 µM of the deuterated (D8) internal standards for each CP-506, CP-506H and CP-506M. The cell monolayer was then treated with 100 µl of this crashing solution. Samples were stored at −80°C until LC-MS/MS analysis. The cellular exclusion of [^3H]-mannitol was used to account for the contribution of the extracellular medium toward determinations of the intracellular concentration, as described previously ([Foehrenbacher et al., 2013a]).
(§2) An agent-based model (ABM) employing a one-dimensional approximation for monolayers was used to develop a cellular PK model, as described in further detail elsewhere ([Hong et al., 2018b]; [Mao et al., 2018]). The mathematical framework assumes that solute concentrations in the medium are dependent only on the depth (on the z coordinate) and not the lateral position (x,y) so that all cells are exposed to the same concentration of nutrients and drugs within the monolayer culture. Moreover, all cells have the same rate of metabolism and volume growth at any instance with variability allowed in cell volume, rate of cell division and cell death. Monolayer ABM simulations were performed on a desktop Windows PC (Intel core I7 processor) from a Qt (Qt Company, https://www.qt.io/) graphical user interface passing parameters to a DLL built with Fortran95. The monolayer ABM uses a finite difference method to solve reaction-diffusion equations for each compound (N) in the medium and cells. Parameters for the cellular uptake and metabolism were fitted to the concentration-time profiles of CP-506 and its metabolites in monolayer cultures of POR-R cells using a linear (first order) cell transport and metabolism model. Terms for the extracellular instability of CP-506 and its metabolites were set at their respective values in media stability studies, and media diffusion coefficients were estimated from the support membrane diffusion coefficients described below. Experimental data describing the kinetics of CP-506 uptake under aerobic conditions was fitted by adjusting the permeability coefficients kin and kout for each compound. These values were fixed for anoxic experiments to allow for parameter estimation of the rate of intracellular CP-506 metabolism (kmet0) as well as the intracellular/extracellular partitioning ratio (kin and kout) and metabolic instability (kmet0) for its cytotoxic metabolites.

[3] = Cellular uptake studies / cellular PK model; format: in vitro ADME, human; conditions: human, POR-overexpressing HCT-116 (POR-R) cell monolayer; Table S3, cellular PK model (extracellular instability); read-out: T1/2: time required to reduce the concentration to half its initial value (converted)
Procedure: as §1, §2

[4] = assumed equivalent to CP-506 for the active metabolites

| Compound | D M: diffusion coefficient in medium [1, 4] | Activator k met0: rate constant for the maximum rate of metabolism in POR-R cells under anoxia [2] [min⁻¹] | k in: rate constant for transfer from the extracellular to intracellular volume [2] [min⁻¹] | k out: rate constant for transfer from the intracellular to extracellular volume [2] [min⁻¹] | kin: rate of transfer from the extracellular to the intracellular compartment [2] [min⁻¹] | kout: rate of transfer from the intracellular to the extracellular compartment [2] [min⁻¹] | kmet: rate of metabolism to the next metabolite [2] [min⁻¹] | half-life at 100 µM [3] [min] | D M: diffusion coefficient in medium ([1]; Dsup fitted for bare support membranes under supraoxic conditions) | Dsup: diffusion coefficient across bare support membranes ([1]; anoxic (5% CO2, bal N2)) | Dsup: diffusion coefficient across bare support membranes ([1]; supraoxic (95% O2, 5% CO2)) | Steady-state Ci/Ce ratio (cell uptake) ([2]; anoxic <1 ppm O2, POR-R monolayer) [fold] | Activator k met0: rate constant for the maximum rate of metabolism in POR-R cells under anoxia ([2]; footnote d: assumed equivalent to the measured metabolites or from published PR-104A estimates) |
| --- | --- | --- | --- | --- | --- | --- | --- | --- | --- | --- | --- | --- | --- |
| CCN1CCN(C(=O)c2cc(N(CCBr)CCOS(C)(=O)=O)c(S(C)(=O)=O)cc2N)CC1 [CP-506M, 2-((4-amino-5-(4-ethylpiperazine-1-carbonyl)-2-(methylsulfonyl)phenyl)(2-bromoethyl)amino)ethyl methanesulfonate] | 1.32 × 10^−6 ± 0.19 × 10^−6 cm^2s^−1 | 0.1 | 0.9 | 0.4 | 0.9 | 0.4 | 0.1 | 6.6 | – | – | – | – | – |
| CCN1CCN(C(=O)c2cc(N(CCBr)CCOS(C)(=O)=O)c(S(C)(=O)=O)cc2[N+](=O)[O-])CC1 [CP-506, 2-[(2-bromoethyl)-5-[(4-ethyl-1-piperazinyl)carbonyl]-2-(methylsulfonyl)-4-nitroanilino]ethyl methanesulfonate] | – | 0.12 | 3.7 | 0.06 | 3.7 | 0.06 | 0.12 | 1200 | 1.32 × 10^−6 ± 0.19 × 10^−6 cm^2s^−1 | 0.717 ± 0.01 x 10^−6 cm^2 s^−1 and 0.717 ± 0.01 (3) x 10^−6 cm^2 s^−1 | 1.32 ± 0.19 x 10^−6 cm^2 s^−1 and 1.32 ± 0.19 (2) ^b x 10^−6 cm^2 s^−1 | 40 | – |
| CCN1CCN(C(=O)c2cc(N(CCCl)CCCl)c(S(C)(=O)=O)cc2N)CC1 [CP-506M-Cl2, (2-Amino-5-(bis(2-chloroethyl)amino)-4-(methylsulfonyl)phenyl)(4-ethylpiperazin-1-yl)methanone] | 1.32 × 10^−6 ± 0.19 × 10^−6 cm^2s^−1 | – | – | – | – | – | – | – | – | – | – | – | 0.1 ^d min^−1 |
| CCN1CCN(C(=O)c2cc(N(CCBr)CCOS(C)(=O)=O)c(S(C)(=O)=O)cc2NO)CC1 [CP-506H, 2-((2-bromoethyl)(5-(4-ethylpiperazine-1-carbonyl)-4-(hydroxyamino)-2-(methylsulfonyl)phenyl)amino)ethyl methanesulfonate] | 1.32 × 10^−6 ± 0.19 × 10^−6 cm^2s^−1 | 0.09 | 0.9 | 0.25 | 0.9 | 0.25 | 0.09 | 12.6 | – | – | – | – | – |

Reference: paper PMC8861431, “Tissue Pharmacokinetic Properties and Bystander Potential of Hypoxia-Activated Prodrug CP-506 by Agent-Based Modelling” (Frontiers in Pharmacology, 2022)
